In patent US12441732B2, “Potassium salt crystal form B of phosphodiesterase type 5 inhibitor, and preparation method and use therefor” (Guangzhou Huazhen Pharmaceutical Co., Ltd, priority 2019, dated 2025):

Columns and labels:
[1] = Pharmacokinetic experiment in rats after gavage; type: in vivo; conditions: male SD rats, gavage 2 mg·kg^−1
Description: After 6 healthy male SD rats were fasted and drank water freely for 12 h, the rats was administered by gavage with the potassium salt crystal form B prepared in Embodiment 1 at 2 mg·kg^−1, and blood was taken from the Bulbus oculi venous plexus at 0.2 h, 0.5 h, 1 h, 1.5 h, 2 h, 4 h, 6 h and 8 h after administration. A solution of acetonitrile:water (1:1) was added, and centrifuging was conducted to take the supernatant for chromatographic analysis, at conditions: a chromatographic column: Thermo Fisher Hypersil gold column (3 μm, 20 mm×2.1 mm), an injection volume of 10 μL, a flow rate of 0.3 mL/min, a column temperature of 40° C., a mobile phase of water (1% formic acid) and methanol, gradient elution: methanol 10% (0 min); 10% (1 min); 90% (4 min); 90% (8 min); 10% (9 min), and with mass spectrometry conditions: multiple reaction monitoring (MRM), electrospray ionization (ESI), retention time (Dwell Time) of 200 ms, detection ion m/z 448.0-347.8. The data of blood drug concentration was analyzed with Winnolin6.3 software to obtain the pharmacokinetic parameters, thereby forming the mean blood drug concentration-time curve, as shown in FIG. 19.

[2] = system: IPF rats; test: Bleomycin-induced idiopathic pulmonary fibrosis (IPF) rats; type: in vivo, SD rats; conditions: 23 days; for Fibrosis area / Fibrosis score (Ashcroft) / Percentage of score (%) (≤3) / Percentage of score (%) (≥4): left lung
Description: The animals were purchased, and modeling was started after 3-7 days of acclimatization. The animals were weighed and anesthetized by inhalation with isoflurane. After the animals were confirmed to be anesthetized, the neck was disinfected, and the skin of the neck was cut. The main trachea was exposed by bluntly dissecting the muscle, a small incision was made between the tracheal rings, into which a PE-20 tube was inserted until the left main bronchus, and bleomycin was injected directly (dose: 3 mg/kg, volume: 1.0 ml/kg). The trachea and skin were sutured. After the surgery, the animals were kept warm at 37° C. under an electric blanket until the animals were fully awake and confirmed to be able to feed and drink freely before returning the animals to their normal feeding cages.
50 mg/kg Nintedanib group (BIBF-50 mg/kg): BIBF was prepared into a solution of 10 mg/ml with 0.5% sodium carboxymethyl cellulose and administered by gavage at a dose of 50 mg/kg^−1·d^−1;
Each group of rats was administered by gavage on the day of modeling, once a day for 23 days in total.
After 23 days of continuous administration, all animals in each group were euthanized by intraperitoneal injection of pentobarbital sodium anesthetic (100 mg/kg) in accordance with the KCl standard operating procedure for animal euthanasia. Whole-body perfusion was performed by low-temperature PBS, and then fixation was performed by whole-body formalin perfusion. The left lung was taken and perfused with an equal amount of formalin fluid for weighing and subsequent lung pathology-related tests.
Left lung gross pathological examination: after perfusion with an equal amount of formalin, the wet weight of the left lung after the perfusion was weighed and recorded with a microbalance; the volume of the left lung after perfusion was measured and recorded using a toe volume measuring instrument.
The whole lung of the left lung was dehydrated according to the KCl pathology standard SOPs, and paraffin blocks were prepared. The whole lung of the left lung was paraffin-sectioned at a thickness of 3-4 μm. HE staining and Masson Trichrome staining were performed according to the KCl pathology standard staining SOPs, and the slice panoramic scanning was carried out by a Hamamatsu NanoZoomer Digital Pathology (S210) slice scanner. The lung lesion area was calculated by Masson Trichrome staining of the sections, and the left lung fibrosis area (%) was the percentage of fibrosis area in the left lung area; 10 randomly selected fields of view of 1 mm^2 in the lesion area were semi-quantitatively scored by the pathologist under double-blind conditions according to the Ashcroft scoring system (as shown in Table 8 and FIG. 40).

[3] = Dynamic vapor sorption (DVS) hygroscopicity test; type: physicochemical
Description: Dynamic vapor adsorption (DVS) experiments were performed at 25° C. on a DVS Intrinsic instrument from SMS (Surface Measurement Systems) to test hygroscopicity of the potassium salt anhydrous crystal form B prepared in Embodiment 1. The test sample was first dried at 0% relative humidity (RH) to remove the adsorbed solvent or water, and then the test was started with a target RH of 0-95%.

[4] = 10 mg/kg, listed as CPD-1, 10 mg/kg
[5] = 10 mg/kg, listed as potassium salt crystal form B of WYQ

Question: For `CCCCOC(=O)[N-]S(=O)(=O)c1cccc(-c2nc3c(CCC)nn(C)c3c(=O)[nH]2)c1.[K+]` [potassium salt crystal form B], which “time at which the peak drug concentration was reached” value [1] is on record?
Answer: 0.63 ± 0.12 h

Question: What about the AUC(0-t) ([1]; rat, blood, po, read-out: AUC(0-4) within 8 h after administration) of the same compound?
Answer: 639 ± 72.4 ng·h/mL

Question: And the Cmax ([1]; rat, blood, po, read-out: maximum drug concentration (Cmax))?
Answer: 334 ± 23.7 ng/mL

Question: And the half-life ([1]; rat, blood, po, read-out: oral half-life (t112) (converted))?
Answer: 2.3 ± 0.27 h

Question: And the AUC(0-inf) ([1]; rat, blood, po, read-out: total area under the mean blood drug concentration-time curve AUC0-∞)?
Answer: 650 ± 70.8 ng·h/mL

Question: What about the Left lung volume ([2]; 2.5 mg/kg gavage once a day) of the same compound?
Answer: 1779.9 ± 105.76 mm^3

Question: And the Left lung weight ([2]; 2.5 mg/kg gavage once a day)?
Answer: 1.59 ± 0.10 g

Question: What about the “alveolar tissue structure in left lung pulmonary fibrosis lesions (HE staining)” value ([2]; 2.5 mg/kg) of the same compound?
Answer: some of the alveolar structures in the fibrotic lesions were damaged

Question: What about the “alveolar tissue structure in left lung pulmonary fibrosis lesions (Masson Trichrom staining)” value ([2]; 2.5 mg/kg) of the same compound?
Answer: some of the alveolar structures in the fibrotic lesions were preserved

Question: And the Left lung volume ([2]; 10 mg/kg gavage once a day)?
Answer: 1604.5 ± 153.72 mm^3

Question: What about the Left lung weight ([2]; 10 mg/kg gavage once a day) of the same compound?
Answer: 1.47 ± 0.16 g

Question: What about the “alveolar tissue structure in left lung pulmonary fibrosis lesions (HE staining)” value ([2]; 10 mg/kg) of the same compound?
Answer: the alveolar structures in the fibrotic lesions were preserved

Question: What about the “alveolar tissue structure in left lung pulmonary fibrosis lesions (Masson Trichrom staining)” value ([2]; 10 mg/kg) of the same compound?
Answer: most of the alveolar structures in the fibrotic lesions were preserved

Question: And the “smooth muscle proliferation and inflammatory cell infiltration in bronchioles and pulmonary arterioles of left lung fibrosis lesions vs model group” value ([2]; 10 mg/kg, HE staining)?
Answer: better effects

Question: What about the “left lung pulmonary fibrosis lesions and lesion range vs the model group” value ([2]; different doses, H&E and Masson Trichrom staining) of the same compound?
Answer: no significant difference

Question: What about the Fibrosis area ([2]; 2.5 mg/kg) of the same compound?
Answer: 51.99 ± 3.21%

Question: What about the “Fibrosis score (Ashcroft)” value ([2]; 2.5 mg/kg) of the same compound?
Answer: 3.21 ± 0.30

Question: What about the “Percentage of score (%) (≤3)” value ([2]; 2.5 mg/kg) of the same compound?
Answer: 53.75 ± 9.81%

Question: What about the “Percentage of score (%) (≥4)” value ([2]; 2.5 mg/kg) of the same compound?
Answer: 46.25 ± 9.81%

Question: What about the Fibrosis area ([2]; 10 mg/kg) of the same compound?
Answer: 53.42 ± 4.44%

Question: What about the “Percentage of score (%) (≤3)” value ([2]; 10 mg/kg) of the same compound?
Answer: 71.25 ± 10.08%

Question: And the “Fibrosis score (Ashcroft)” value [2, 4]?
Answer: 2.69 ± 0.31

Question: And the “Percentage of score (%) (≥4)” value [2, 4]?
Answer: 28.75 ± 10.08%

Question: What about the “Fibrosis score (Ashcroft)” value [2, 5] of the same compound?
Answer: significantly inhibit

Question: And the “Percentage of score (%) (≥4)” value [2, 5]?
Answer: significantly reduced

Question: What about the “crystal form before and after the DVS test (XRPD)” value ([3]; DVS 0-95% RH, 25° C.) of the same compound?
Answer: did not change

Question: What about the “change in mass (water adsorption amount)” value ([3]; DVS, 25° C./80% RH) of the same compound?
Answer: 0.6%

Question: And the hygroscopicity ([3]; DVS, 25° C./80% RH)?
Answer: slight hygroscopicity
